Assay: xn = mol fraction of the nth substance listed
Conditions: 101 kPa

COC(=O)OC + CCCCCCCC[N+](C)(CCCCCCCC)CCCCCCCC.[Cl-]
x1 = 1
Conditions	electrical conductivity [S/m]	viscosity [mPa·s]
303.15 K	0.0001	0.55
308.15 K	–	0.49

CCCCCCCC[N+](C)(CCCCCCCC)CCCCCCCC.[Cl-] + COC(=O)OC
Conditions	electrical conductivity, 298.15 K [S/m]	electrical conductivity, 303.15 K [S/m]	electrical conductivity, 308.15 K [S/m]	electrical conductivity, 313.15 K [S/m]	electrical conductivity, 318.15 K [S/m]	viscosity, 298.15 K [mPa·s]	viscosity, 303.15 K [mPa·s]	viscosity, 308.15 K [mPa·s]	viscosity, 313.15 K [mPa·s]	viscosity, 318.15 K [mPa·s]
x1 = 0.002	0.0001	–	0.0002	0.0003	0.0004	–	–	–	–	–
x1 = 0.006	–	0.0003	0.0004	–	0.0006	–	–	–	–	–
x1 = 0.011	0.0006	0.0008	0.0009	0.001	0.0012	–	–	–	–	–
x1 = 0.015	0.0009	–	0.0013	0.0014	0.0015	–	–	–	–	–
x2 = 0	–	0.0035	0.0049	0.0066	0.0087	–	1602	1067	770	570
x2 = 0.35	0.0047	0.0064	0.0084	0.0108	0.0138	530	400	304	238	200
x2 = 0.55	0.0098	–	0.016	–	0.0249	158	–	98	–	65.2
x2 = 0.67	–	0.019	0.0236	0.0287	0.0347	–	47.1	38.66	32.21	27.29
x2 = 0.76	0.0211	0.0259	–	0.038	0.0452	22.51	18.86	–	13.72	11.84
x2 = 0.83	0.0235	0.0287	0.0345	0.041	0.0482	10.27	8.87	7.71	6.91	6.15
x2 = 0.88	–	0.031	0.037	0.0438	0.0513	–	4.56	4.11	3.7	3.36
x2 = 0.92	0.0171	0.0204	0.0246	–	0.0342	2.52	2.27	2.07	–	1.75
x2 = 0.95	0.0076	0.0094	–	0.014	0.0167	1.41	1.3	–	1.13	1.06
x2 = 0.98	0.0012	0.0016	–	–	0.002	0.79	0.75	–	–	0.64

Reference: a compilation of properties of binary mixtures (doi:10.1016/j.molliq.2012.02.019)
